From PMC3608651, “A Broad Profile of Co-Dominant Epitopes Shapes the Peripheral Mycobacterium tuberculosis Specific CD8+ T-Cell Immune Response in South African Patients with Active Tuberculosis” (PLoS ONE, 2013)
Read-outs that look alike come from different tables or passages of the source.

Assays:
Type in all cases: binding
HLA-A*02:01 [1] = target: T1, HLA-A*02:01 (Homo sapiens, UniProt P04439, D140Y/D185E/D98H/E176V/E277Q/G131W/G231S/I119V/I121R/I166T/I218V/L300P/L318F/N151K/N90K/P208A/P217A/Q86G/Q94H/R138H/R169H/T345S); conditions: plate-bound monomer 0.5 µg/ml, duplicated experiments, positive binder >40%
HLA-A*24:02 = HLA-A*24:02 (Homo sapiens, UniProt P04439, D101N/D140Y/D185E/E176V/E190D/F33S/G103R/G107R/I119L/I121M/I306V/K335N/L105A/L180Q/L300P/N151K/N90K/Q86E/Q94H/R106L/R138H/R89G/T104I/T345S/V100E/W191G/Y123F); conditions: duplicated experiments, positive binder >40%
HLA-A*30:01 = HLA-A*30:01 (Homo sapiens, UniProt P04439, D140H/D185E/E176W/F33S/G80R/H175R/K168Q/R138E/R41S); conditions: duplicated experiments, positive binder >40%
HLA-A*30:02 [2] = target: T2, HLA-A*30:02 (Homo sapiens, UniProt P04439, D101N/D140H/D185E/E176R/F33S/G80R/H175R/K168Q/Q94H/R138E/R41S/V100E); conditions: duplicated experiments, positive binder >40%
HLA-A*30:02 [3] = target: T2, HLA-A*30:02
HLA-A*30:02 [4] = target: T2, HLA-A*30:02; conditions: time points 0-8 h
HLA-A*68:01 [5] = target: T3, HLA-A*68:01 (Homo sapiens, UniProt P04439, A269V/D185E/E176V/E277Q/E87N/F33Y/G231S/I121M/I166T/I218V/L180W/L300P/L318F/N151K/P208A/P217A/Q86R/R169H/T345S); conditions: duplicated experiments, positive binder >40%
HLA-A*68:01 [6] = target: T3, HLA-A*68:01
HLA-A*68:01 [7] = target: T3, HLA-A*68:01; conditions: time points 0-8 h
HLA-B*07:02 = HLA-B*07:02 (Homo sapiens, UniProt P01889); conditions: percent relative the binding of positive control peptide […]; duplicated experiments; positive binder >40%
HLA-B*58:01 [8] = target: T4, HLA-B*58:01 (Homo sapiens, UniProt P01889, A329T/C349S/D201E/D98Y/E176V/E187L/E204Q/E69T/G107R/I218V/I90N/K202T/L105A/L119I/N104I/N87E/Q89R/Q94S/R106L/R155S/R180L/R86G/S101N/S121R/S35A/S48A/T118I/V127L/V306I/V36M/Y140S/Y91M); conditions: duplicated experiments, positive binder >40%
HLA-B*58:01 [9] = target: T4, HLA-B*58:01
HLA-B*58:01 [10] = target: T4, HLA-B*58:01; conditions: time points 0-8 h
HLA-C*07:01 [11] = target: T5, HLA-C*07:01 (Homo sapiens, UniProt P10321, K90N/S123Y); conditions: duplicated experiments, positive binder >40%
HLA-C*07:01 [12] = target: T5, HLA-C*07:01; experiment: affinity assay (ED50)
HLA-C*07:01 [13] = target: T5, HLA-C*07:01; experiment: off-rate assay (t1/2); conditions: time points 0-8 h
HLA-A*02:01 [14] = target: T1, HLA-A*02:01; conditions: […]; peptide quantity for 50% binding saturation
HLA-A*02:01 [15] = target: T1, HLA-A*02:01; conditions: time points 0-8 h; time when 50% of peptide has dissociated
[16] = percent relative the binding of positive control peptide […]
[17] = peptide titrated 10−4 to 10−9 M

| Substance | Bind A*02:01 (HLA-A*02:01 [1]; [16]) | Bind A*24:02 (HLA-A*24:02; [16]) | Bind A*30:01 (HLA-A*30:01; [16]) | Bind A*30:02 (HLA-A*30:02 [2]; [16]) | Aff A*30:02 (ED50) (HLA-A*30:02 [3]) | O-rate A*30:02 (t1/2) (HLA-A*30:02 [4]) | Bind A*68:01 (HLA-A*68:01 [5]; [16]) | Aff A*68:01 (ED50) (HLA-A*68:01 [6]) | O-rate A*68:01 (t1/2) (HLA-A*68:01 [7]) | Bind B*07:02 (HLA-B*07:02) | Bind B*58:01 (HLA-B*58:01 [8]; [16]) | Aff B*58:01 (ED50) (HLA-B*58:01 [9]) | O-rate B*58:01 (t1/2) (HLA-B*58:01 [10]) | Bind C*07:01 (HLA-C*07:01 [11]; [16]) | Aff C*07:01 (ED50) (HLA-C*07:01 [12]) | O-rate C*07:01 (t1/2) (HLA-C*07:01 [13]) | other results |
| --- | --- | --- | --- | --- | --- | --- | --- | --- | --- | --- | --- | --- | --- | --- | --- | --- | --- |
| SSAMILAAY | 0% | 36% | 0% | 118% | 7E -09 M | 3.6 h | 101% | 1E -07 M | 1.8 h | 4% | 90% | 2E -08 M | 0.8 h | 41% | 4E -07 M | 1.6 h | – |
| RAVKPT GSA | 19% | 0% | 4% | 18% | – | – | 10% | – | – | 84% | 72% | 5E -07 M | 0.3 h | 82% | 2E -07 M | 1.4 h | – |
| MAGSSAMIL | 54% | 26% | 0% | 13% | – | – | 0% | – | – | 57% | 55% | 9e-09 M | 0.8 h | 94% | 1E -08 M | 0.5 h | Aff A*02:01 (ED50) (HLA-A*02:01 [14]): 700 nM; O-rate A*02:01 (t1/2) (HLA-A*02:01 [15]): 0.4 h |
| I NT P AF E WY | 0% | 20% | 10% | 132% | 7E -07 M | 1.9 h | 9% | – | – | 2% | 54% | 5e-07 M | 0.5 h | 41% | 6E -07 M | 1 h | – |
| FVRSSNLKF | 15% | 81% | 0% | 94% | 8E -06 M | 1.9 h | 45% | 8e-08 M | 0.1 h | 114% | 12% | – | – | 76% | 2E -08 M | 1.4 h | – |
| LAAAWGGSG [Rv3875_39-47] | – | – | – | – | – | 2.1 h | – | – | – | 4% | – | – | – | – | – | 1.0 h | Bind A*02:01 (HLA-A*02:01 [1]; percent relative the binding of positive control peptide FLPSDFFPSV): 8%; Bind A*24:02 (HLA-A*24:02; percent relative the binding of positive control peptide RYLKDQQLL): 4%; Bind A*30:01 (HLA-A*30:01; percent relative the binding of positive control peptide KTKDIVNGL): 14%; Bind A*30:02 (HLA-A*30:02 [2]; percent relative the binding of positive control peptide KIQNFRVYY): 114%; Aff A*30:02 (ED50) (HLA-A*30:02 [3]; [17]): 7e-09 M; Bind A*68:01 (HLA-A*68:01 [5]; percent relative the binding of positive control peptide KTGGPIYKR): 10%; Bind B*58:01 (HLA-B*58:01 [8]; percent relative the binding of positive control peptide IAMESIVIW): 7%; Bind C*07:01 (HLA-C*07:01 [11]; percent relative the binding of positive control peptide KYFDEHYEY): 120%; Aff C*07:01 (ED50) (HLA-C*07:01 [12]; [17]): 4e-08 M |
| NTPAFEWYY | 0% | 0% | 6% | 99% | 2e-08 M | 1.5 h | 69% | 1E -07 M | 0.2 h | 0% | 36% | – | – | 48% | 8e-09 M | 0.9 h | – |
